In ChEMBL document CHEMBL1201862, “PubChem BioAssay data set” (2004):
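Grown in 96-well plates, cells were treated for 48 hours with each compound at five concentrations. Insufficient inhibition: endpoint recorded as highest concentration tested. The concentration for 50% growth inhibition is given as GI50.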 Calls of active or inactive are those of the source. No stated cut-off is given here; in the data, active = GI50 up to about 1.1 µM and inactive = higher.

What was measured:
Assay in all cases: inhibition of tumour cell growth, NCI panel, 48 h
[1] = test system: HT-29
[2] = test system: SK-MEL-28
[3] = test system: T47D
[4] = test system: NCI/ADR-RES
[5] = test system: HL-60
[6] = test system: SF-268
[7] = test system: UO-31
[8] = test system: OVCAR-5
[9] = test system: HCT-15
[10] = test system: MDA-MB-231
[11] = test system: NCI-H226
[12] = test system: 786-0
[13] = test system: RPMI-8226
[14] = test system: UACC-62
[15] = test system: DU-145
[16] = test system: M14
[17] = test system: OVCAR-8
[18] = test system: HCC 2998
[19] = test system: SF-539
[20] = test system: SR

SMILES | GI50 [1] | GI50 [2] | GI50 [3] | GI50 [4] | GI50 [5] | GI50 [6] | GI50 [7] | GI50 [8] | GI50 [9] | GI50 [10] | GI50 [11] | GI50 [12] | GI50 [13] | GI50 [14] | GI50 [15] | GI50 [16] | GI50 [17] | GI50 [18] | GI50 [19] | GI50 [20]
O=S(=O)(O)c1cc(S(=O)(=O)O)c2c(/N=N/c3ccc(S(=O)(=O)O)c4ccccc34)c(O)ccc2c1 | > 100 µM (inactive) | > 100 µM (inactive) | > 100 µM (inactive) | > 100 µM (inactive) | > 100 µM (inactive) | > 100 µM (inactive) | > 100 µM (inactive) | > 100 µM (inactive) | > 100 µM | > 100 µM (inactive) | > 100 µM (inactive) | > 100 µM (inactive) | > 100 µM (inactive) | > 100 µM (inactive) | > 100 µM (inactive) | > 100 µM (inactive) | > 100 µM (inactive) |  |  | 
CC1(C)O[C@H](C(=O)O)[C@@H](C(=O)O)O1 | > 100 µM (inactive) | > 100 µM (inactive) | > 100 µM (inactive) | > 100 µM (inactive) |  | > 100 µM (inactive) |  | > 100 µM (inactive) | > 100 µM | > 100 µM (inactive) | > 100 µM (inactive) | > 100 µM (inactive) | > 100 µM (inactive) | > 100 µM (inactive) | > 100 µM (inactive) | > 100 µM (inactive) | > 100 µM (inactive) | > 100 µM (inactive) | > 100 µM (inactive) | > 100 µM (inactive)
Cc1ccc(S(=O)(=O)N2CC2CCCCC=O)cc1 (configuration not stated) | 26.8 µM (inactive) | > 100 µM (inactive) | > 100 µM (inactive) | > 100 µM (inactive) |  | > 100 µM (inactive) | 85.5 µM (inactive) | > 100 µM (inactive) | > 100 µM | > 100 µM (inactive) | > 100 µM (inactive) | 40.6 µM (inactive) | 37.8 µM (inactive) | 50.7 µM (inactive) | > 100 µM (inactive) | 51.3 µM (inactive) | > 100 µM (inactive) |  |  | 17.1 µM (inactive)
Cc1c/c(=N\c2ccc3c(c2)c(N)cc(C)[n+]3C)nc(N)n1C | > 100 µM (inactive) | > 100 µM (inactive) | > 100 µM (inactive) | > 100 µM (inactive) |  | > 100 µM (inactive) | > 100 µM (inactive) | > 100 µM (inactive) | > 100 µM | > 100 µM (inactive) |  | > 100 µM (inactive) | > 100 µM (inactive) | > 100 µM (inactive) | > 100 µM (inactive) | > 100 µM (inactive) | 86.3 µM (inactive) |  | > 100 µM (inactive) | > 100 µM (inactive)
COc1ccc(-n2cnc3c(NC(Cc4ccccc4)C(=O)O)ncnc32)cc1 (configuration not stated) | > 100 µM (inactive) | > 100 µM (inactive) | 92.7 µM (inactive) | > 100 µM (inactive) |  | > 100 µM (inactive) | > 100 µM (inactive) | > 100 µM (inactive) | > 100 µM | > 100 µM (inactive) | > 100 µM (inactive) | > 100 µM (inactive) | > 100 µM (inactive) | > 100 µM (inactive) | > 100 µM (inactive) | > 100 µM (inactive) | > 100 µM (inactive) | > 100 µM (inactive) |  | > 100 µM (inactive)
CC[C@@]1(OC(=O)C(N)CCC(=O)O)C(=O)OCc2c1cc1n(c2=O)Cc2cc3ccccc3nc2-1 (some centres not stated) | 0.261 µM (active) | 1.35 µM (inactive) | 0.0267 µM (active) | < 0.01 µM (active) | 0.0208 µM (active) | 0.0256 µM (active) | 0.0493 µM (active) | 0.248 µM (active) | 0.453 µM | 1.63 µM (inactive) | 0.0502 µM (active) | 0.0206 µM (active) | 0.148 µM (active) | < 0.0152 µM (active) | < 0.01 µM (active) | 0.0347 µM (active) | 0.117 µM (active) | 0.461 µM (active) | 0.018 µM (active) | 
COC(=O)/C(=C\c1ccco1)P(=O)(OC)OC | 25.9 µM (inactive) | 52.8 µM (inactive) | > 100 µM (inactive) | 24.5 µM (inactive) |  | 97.3 µM (inactive) |  | 16.2 µM (inactive) | 75.5 µM | 38.8 µM (inactive) | 58.3 µM (inactive) | 47.4 µM (inactive) | 67.8 µM (inactive) | 47.6 µM (inactive) | 80.9 µM (inactive) | 55.7 µM (inactive) | 31.5 µM (inactive) | > 100 µM (inactive) | 32.5 µM (inactive) | 52.8 µM (inactive)
CCCCNC(=S)Nc1nc(C(=O)NNC(=S)NCC)cs1 | 53.8 µM (inactive) |  | 16.7 µM (inactive) | 26.5 µM (inactive) |  | > 100 µM (inactive) | 31.6 µM (inactive) | > 100 µM (inactive) | 23 µM | 99.8 µM (inactive) | > 10 µM (inactive) | > 100 µM (inactive) | > 100 µM (inactive) | > 100 µM (inactive) | 73.5 µM (inactive) | > 100 µM (inactive) | > 100 µM (inactive) | > 100 µM (inactive) | 73.5 µM (inactive) | 6.73 µM (inactive)
